From patent US20240207264A1, “PHARMACEUTICAL COMPOSITIONS COMPRISING INHIBITORS OF THE ANDROGEN RECEPTOR AND USES THEREOF” (ESSA PHARMA INC., priority 2021, published 2024)
“Also recorded” adds a separate entry of the source.

What was measured:
[1] = test system: LNCaP95; test: LNCaP95 prostate cancer xenograft model; type: in vivo; settings: LNCaP95 (high level AR-V7), castrated male mice, 30 mg/kg, Solution, qd24
Protocol: (§1) Compound A's activity was measured in a variety of castrate-sensitive and castrate-resistant prostate cancer (CRPC) xenograft models (Table 32).

[2] = test system: HID28; test: Enzalutamide resistant patient-derived xenograft (PDX) model HID28; type: in vivo, nude mice; settings: HID28 PDX (AR+ PSA+), castrated male mice, 60 mg/kg, SDD, qd28
Protocol: as §1
For example, intact male nude mice were engrafted with HID28 tumor fragments and once tumors reached ˜150 mm^3 the mice were castrated. The mice were enrolled in the experiment once the tumors started to regrow, 10 days post-castration. Compound A was tested in the HID28 PDX model at 60 mg/kg, QD for 28 days using SDD formulation with HPMCAS-H in 0.5% Methocel A4M in water.
Mean tumor volume in castrated nude mice bearing enzalutamide resistant patient-derived xenograft (PDX) model HID28 was measured after oral treatment with solid dispersion composition of Compound A or enzalutamide for 28 days (n=6-7 per group) is shown in FIG. 16B.

[3] = test system: LNCaP; test: LNCaP prostate cancer xenograft model; type: in vivo; settings: LNCaP (AR FL), castrated male mice, 60 mg/kg, Solution, qd24
Protocol: as §1

[4] = Phase I clinical study, PK; type: in vivo, human; settings: patients; for Cmax / Tmax / AUC(0-t) / half-life: po, 200 mg/day; for AUC(0-t): read-out: AUC0-24; for half-life: read-out: t½ (converted)
Protocol: (§2) Phase I clinical research study of Compound A is studied as a treatment for patients with prostate cancer. All patients in the study receives Compound A at a once daily oral dose of 200 mg, 400 mg, 600 mg, 800 mg, or 1000 mg. Compound A in this study is provided as an SDD composition with HPMCAS-H. One cycle of treatment is 28 days of dosing.
PK parameters were measured from 4 subjects who were administered at 200 mg/day dose (Table 33). One patient discontinued before day 28 due to disease progression. 2 subjects received both abiraterone and enzalutamide prior treatments. 3 subjects received prior chemotherapy with taxanes.

[5] = PK study, single PO dose, rats; type: in vivo; settings: Sprague-Dawley, rat, plasma, male SD rats; for half-life: read-out: T½ (converted)
Protocol: A single PO dose of Compound A in three different formulations were administered to male Sprague-Dawley (SD) rats. Animals in Group 1 (Solution) received Compound A by oral gavage (PO) administration at 30 mg/kg, which was formulated in 4% NMP, 20% Capmul MCM, 21% Vitamin E TPGS, 55% PEG400. Animals in Group 2 (Suspension A) received Compound A by oral gavage (PO) administration at 100 mg/kg, which was formulated in SDD formulation with HPMCAS-H in 0.5% Methocel A4M in water. Mean plasma of Compound A was measured over 24-hour period after administration of Compound A (FIG. 15A) and PK parameters were determined (Table 29).

[6] = test system: 22Rv1; test: 22Rv1 prostate cancer xenograft model; type: in vivo; settings: 22Rv1 (high level AR-V7), castrated male mice, 30 mg/kg, Solution, qd28
Protocol: as §1

[7] = test system: VCaP tumors; test: VCaP prostate cancer xenograft model; type: in vivo, SCID Beige male mice; settings: VCaP (amplified AR, some AR-V7), castrated male mice, Solution, qd24
[8] = PK study, single PO dose, mice; type: in vivo; settings: male, CD-1, mouse, plasma, male CD-1 mice
Protocol: A single PO dose of Compound A in different doses in solid dispersion and at 30 mg/kg dose of Compound A in solution were administered to male CD-1 mice. Mean plasma of Compound A was measured over 24 hour period after administration of Compound A (FIG. 15C) and PK parameters were determined (Table 31).

[9] = PK study, single PO dose, dogs; type: in vivo; settings: male, Beagle, dog, plasma; for half-life: read-out: T½ (converted)
Protocol: A single PO dose of Compound A in two different formulations were administered to male Beagle dogs. Mean plasma of Compound A was measured over 24-hour period after administration of Compound A (FIG. 15B) and PK parameters were determined (Table 30).

[10] = Phase I clinical study, safety (DLT); type: in vivo, human
Protocol: as §2
The primary safety variable for Part 1a of the study is the incidence of protocol-defined dose limiting toxicity (DLT) during the DLT assessment period (first 28 days of dosing). The DLTs will be characterized by type, frequency, severity (as graded by National Cancer Institute Common Terminology Criteria for AEs [NCI CTCAE version 5.0]), timing, seriousness, and relationship to study drug.

[11] = male, human, in vivo, 200 mg/day oral SDD with HPMCAS-H, Day 1, N 4
[12] = male, human, in vivo, 200 mg/day oral SDD with HPMCAS-H, Day 28, N 3
[13] = PO 30 mg/kg, Solution (4% NMP, 20% Capmul MCM, 21% Vitamin E TPGS, 55% PEG400)
[14] = PO 100 mg/kg, Suspension A (SDD with HPMCAS-H in 0.5% Methocel A4M in water)
[15] = 10 mg/kg, PO 10 mg/kg, Suspension A (SDD)
[16] = 30 mg/kg, PO 30 mg/kg, Solution (9% DMSO, 9% NMP, 27% solutol, 55% PEG400)
[17] = 30 mg/kg, PO 30 mg/kg, Suspension A (SDD)
[18] = 90 mg/kg, PO 90 mg/kg, Suspension A (SDD)
[19] = 270 mg/kg, PO 270 mg/kg, Suspension A (SDD)
[20] = 50 mg/kg, PO 50 mg/kg, Solution (5% NMP, 20% vitamin E TPGS, 20% PEG 300, 0.5% SLS, 1.09% HPMCAS-H, 53.91% water)
[21] = 50 mg/kg, PO 50 mg/kg, Suspension A (SDD)
[22] = 100 mg/kg, PO 100 mg/kg, Suspension A (SDD)
[23] = 3 subjects, 28 day dosing at 200 mg/day

Q: With `CC(C)(c1ccc(OCc2ccnc(NS(C)(=O)=O)n2)cc1)c1cc(Cl)c(OCCCl)c(C#N)c1` [Compound A, N-(4-((4-(2-(3-chloro-4-(2-chloroethoxy)-5-cyanophenyl)propan-2-yl)phenoxy)methyl)pyrimidin-2-yl)methanesulfonamide] as the compound, how does the “TGI (Tumor Growth Inhibition)” value [1] read?
A: 54%

Q: What about the “TGI (Tumor Growth Inhibition)” value [2] of the same compound?
A: 58%

Q: What about the “TGI (Tumor Growth Inhibition)” value [3] of the same compound?
A: 93%

Q: What about the Cmax [4, 11] of the same compound?
A: 3300 ng/mL

Q: What about the Tmax [4, 11] of the same compound?
A: 6.5 h

Q: What about the AUC(0-t) [4, 11] of the same compound?
A: 53.9 µg·h/mL

Q: And the half-life [4, 11]?
A: 22 h

Q: And the Cmax [4, 12]?
A: 8020 ng/mL

Q: And the Tmax [4, 12]?
A: 6.7 h

Q: What about the AUC(0-t) [4, 12] of the same compound?
A: 147 µg·h/mL

Q: And the half-life [4, 12]?
A: 24.8 h

Q: And the concentration at 28 day ([4]; male, human, in vivo, 200 mg/day oral SDD with HPMCAS-H, Day 28, N 3, read-out: Clast)?
A: 4590 ng/mL

Q: What about the Clast ([4]; 200 mg/day oral SDD with HPMCAS-H, Day 1, N 4) of the same compound?
A: 1,808 ng/mL

Q: And the “time to steady state” value ([4]; repeat QD dosing 200 mg/day)?
A: after day 8

Q: What about the AUC(0-t) [5, 13] of the same compound?
A: 399 µg·h/mL

Q: What about the Cmax [5, 13] of the same compound?
A: 26800 ng/mL

Q: And the Tmax [5, 13]?
A: 9.3 h

Q: What about the half-life [5, 13] of the same compound?
A: 7.6 h

Q: What about the AUC(0-t) [5, 14] of the same compound?
A: 1180 µg·h/mL

Q: What about the Cmax [5, 14] of the same compound?
A: 89800 ng/mL

Q: And the Tmax [5, 14]?
A: 5.3 h

Q: And the half-life [5, 14]?
A: 6.2 h

Q: What about the “TGI (Tumor Growth Inhibition)” value [6] of the same compound?
A: 48%

Q: What about the “TGI (Tumor Growth Inhibition)” value ([7]; 3 mg/kg) of the same compound?
A: 54%

Q: What about the “TGI (Tumor Growth Inhibition)” value ([7]; 10 mg/kg) of the same compound?
A: 95%

Q: And the “TGI (Tumor Growth Inhibition)” value ([7]; 30 mg/kg)?
A: >100%

Q: What about the AUC(0-inf) [8, 15] of the same compound?
A: 189 µg·h/mL

Q: And the AUC(0-t) [8, 15]?
A: 177 µg·h/mL

Q: And the Cmax [8, 15]?
A: 14300 ng/mL

Q: And the AUC(0-inf) [8, 16]?
A: 352 µg·h/mL

Q: What about the AUC(0-t) [8, 16] of the same compound?
A: 336 µg·h/mL

Q: What about the Cmax [8, 16] of the same compound?
A: 32000 ng/mL

Q: What about the AUC(0-inf) [8, 17] of the same compound?
A: 604 µg·h/mL

Q: And the AUC(0-t) [8, 17]?
A: 565 µg·h/mL

Q: What about the Cmax [8, 17] of the same compound?
A: 45900 ng/mL

Q: And the AUC(0-inf) [8, 18]?
A: 1700 µg·h/mL

Q: What about the AUC(0-t) [8, 18] of the same compound?
A: 1570 µg·h/mL

Q: What about the Cmax [8, 18] of the same compound?
A: 110000 ng/mL

Q: What about the AUC(0-inf) [8, 19] of the same compound?
A: 2690 µg·h/mL

Q: What about the AUC(0-t) [8, 19] of the same compound?
A: 2310 µg·h/mL

Q: What about the Cmax [8, 19] of the same compound?
A: 162000 ng/mL

Q: What about the AUC(0-t) [9, 20] of the same compound?
A: 648 µg·h/mL

Q: And the Cmax [9, 20]?
A: 45800 ng/mL

Q: And the Tmax [9, 20]?
A: 2 h

Q: And the half-life [9, 20]?
A: 21.9 h

Q: And the AUC(0-t) [9, 21]?
A: 845 µg·h/mL

Q: And the Cmax [9, 21]?
A: 55500 ng/mL

Q: What about the Tmax [9, 21] of the same compound?
A: 3.3 h

Q: What about the half-life [9, 21] of the same compound?
A: 16.2 h

Q: And the AUC(0-t) [9, 22]?
A: 1450 µg·h/mL

Q: What about the Cmax [9, 22] of the same compound?
A: 80600 ng/mL

Q: And the Tmax [9, 22]?
A: 5.3 h

Q: What about the half-life [9, 22] of the same compound?
A: 24 h

Q: What about the tolerability ([10]; 200 mg/day) of the same compound?
A: well tolerated

Q: What about the “dose limiting toxicity (DLT)” value [10, 23] of the same compound?
A: No DLTs were observed; also recorded: No dose limiting toxicity was observed

Q: What about the severe adverse events [10, 23] of the same compound?
A: no severe adverse events were observed
